# Results: patent US20250228873A1, “C25 R AND S ISOMERS OF AMINOSTEROLS AND METHODS OF MAKING AND USING THE SAME” (Enterin, Inc., priority 2022, published 2025)
# Several values for one entry are separate records, joined by “and”; a condition that tells them apart may be missing. Equal values may be shown once. Read-outs that look alike come from different tables or passages of the source.
# Experiments:
# [1] = Weight loss, 3, 5, 10 mg/kg (FIG. 14); format: in vivo, C57bl/6 male mice; details: intraperitoneal 3, 5, 10 mg/kg once weekly over 2 weeks
# [2] = Mouse weight after deuterated ENT-03 i.p. (FIG. 12); format: in vivo; details: i.p. to mice
# Text: The presence of the deuterium on the side chain likely slows the action of the 2-methylacyl-coenzyme A racemase on C-25, the subsequent action of the dehydrogenase that produces the 24,25-trans-unsaturated derivative by removing the deuterium atoms at C24 and C25, and the subsequent hydration and oxidation at the C24 bond catalyzed by the D-bifunctional protein. Instead, the metabolism of ENT-03D3 will begin with the oxidation at C24 by CYP46A1, yielding the following compound: […]
# [3] = Pharmacokinetic profile, intravenous administration; format: in vivo, male SD Rats; details: I.V. 5 mg/kg, plasma; for MRT inf: read-out: MRTInf_obs
# Procedure: The objective of this example was to determine the pharmacokinetic profile of ENT-03 (Compound III) via intravenous and oral administration in male SD Rats.
# Animal feeding control: Animals were food fasted overnight prior to dosing and fed 4 hours after administration having free access to water.
# PK Sample Analyses: Concentrations of ENT-03 (Compound III) in the plasma and dose samples were analyzed using a LC-MS/MS method. WinNonlin (Phoenix™, version 6.1) or other similar software was used for pharmacokinetic calculations. The following pharmacokinetic parameters were calculated, whenever possible from the plasma concentration versus time data.
# IV Bolus administration: T1/2, C0, AUClast, AUCinf, MRTinf, Cl, Vss, Number of Points for Regression.
# The pharmacokinetic data was described using descriptive statistics such as mean and standard deviation. All the residual biological samples were retained in the freezer ([…]) for a period of 6 months after testing.
# [4] = tested on: PS19 mice; assay: Morris water maze, tau Alzheimer's model; format: in vivo; details: 2.5 mg/kg/wk i.p. over 6 weeks, vs vehicle treated littermates
# Text: The Morris water maze was used to test the effect of ENT-03 on spatial learning and memory deficits in 2 mouse models of familial Alzheimer's disease, hAPP-J20 mice that express a double mutant of the human amyloid precursor protein (Mucke et al., 2000), and PS19 mice that express the P301S mutant of the human microtubule associated protein tau (Yoshiyama et al., 2007).
# hAPP-J20 mice expressing human APP bearing the Swedish and Indiana familial mutations (B6.Cg-Zbtb20Tg(PDGFB-APPSwInd)20Lms/2Mmjax, (Mucke et al., 2000)) and PS19 mice expressing the P301S mutation of human tau protein (B6;C3-Tg(Prnp-MAPT*P301S)PS19Vle/J (Yoshiyama et al., 2007)) were purchased from Jackson laboratories and maintained as colonies in the animal facility of the University of Ottawa. Heterozygous hAPP-J20 and PS19 mice were used. Genotypes were verified by PCR using genomic DNA isolated from tail or ear biopsies. […]
# The Morris water maze test to analyze the ability of mice to learn and remember the location of a submerged platform in a pool containing opaque water was conducted in the Faculty of Medicine Behavior Core Laboratory at the University of Ottawa. […] On the probe day, crossings of the platform area and target quadrant were counted and swimming speed was measured using Ethovision automated video tracking software (Noldus).
# [5] = tested on: stomach, jejunum and ileum; assay: GI tract transcriptome (RNAseq) after oral ENT-03, young vs aged mice; format: in vivo, C57bl/6 male mice
# Procedure: Young (20 week) and aged (80 week) C57bl/6 male mice were administered ENT-03 (40 mg/kg) or vehicle (water) by oral gavage daily for 2 weeks. Over this period of time clinical observations were unremarkable as were the gross and microscopic examinations of the GI tract. The transcriptomes of the stomach, jejunum and ileum were analyzed by RNAseq technology. Comparative analyses of the transcripts from untreated animals identified numerous transcripts that differed in abundance between the corresponding tissues from old and young individuals. […] Thus, within these three distinct regions of the mouse GI tract, ageing is associated with changes in the transcriptome.
# Statistical analysis of RNA-sequencing data was performed using R programming language. Transcripts with less than one read count per million reads in all samples of each tissue were removed. The raw count data for the samples were then normalised using trimmed mean of M-values normalisation and transformed with voom (Law et al., 2014), resulting in log 2-transformed counts per million with associated precision weights. […] Statistical comparisons were performed using linear modelling, as implemented in the Bioconductor package limma (Ritchie et al., 2015). Significance values (p-values) were adjusted for multiple testing using Benjamini-Hochberg procedure (Benjamini et al., 1995). For each comparison (e.g. group A versus group B), a positive log 2-transformed fold change indicates up-regulation in group A relative to group B.
# To investigate the overlap between contrasts, the number of overlapping differentially expressed genes (defined using adjusted p-value <0.05) between all pairwise combinations of the comparisons performed were counted. For each comparison, the Jaccard index, defined as the intersection over the union, measures the similarity between the two contrasts under consideration. The p-value was calculated using a hypergeometric test taking into account the universe size under the assumption that the contrasts and genes are independent.
# [6] = individual rats (Rat 1-3), listed as ENT-03 (Compound III), 5 mg/kg
# [7] = male, SD, rat, iv, 5 mg/kg, Mean
# [8] = male, SD, rat, iv, 5 mg/kg, individual rats (Rat 1-3)
smiles,measurement,setting,value
"CC(CCC[C@@H](C)[C@H]1CCC2C3C(CC[C@@]21C)[C@@]1(C)CC[C@H](NCCCNCCCCNCCCN)C[C@@H]1C[C@H]3O)C(=O)O (single isomer, unassigned) [ENT-03]",clinical appearance other than weight loss,[1],appeared clinically normal
same,effect on weight,[1],dose dependent weight loss
same,effect on weight,[2],loss of weight
same,AUC_%Extrap_obs,[3]; Mean,38.2%
same,AUClast/D,[3]; Mean,122000 h·ng/mL per mg/kg
same,Cl_obs,[3]; Mean,5.1 mL/h/kg
same,Vss_obs,[3]; Mean,0.125 L/kg
same,AUCInf,[3]; [6],941.13 µg·h/mL and 1095.763 µg·h/mL
same,AUC_%Extrap_obs,[3]; [6],39.6% and 35.4% and 39.7%
same,AUClast,[3]; [6],608.321 µg·h/mL and 661.154 µg·h/mL
same,AUClast/D,[3]; [6],112000 h·ng/mL per mg/kg and 122000 h·ng/mL per mg/kg and 132000 h·ng/mL per mg/kg
same,C0,[3]; [6],102.409 µg/mL and 76.2 µg/mL
same,Cl_obs,[3]; [6],5.42 mL/h/kg and 5.31 mL/h/kg and 4.57 mL/h/kg
same,MRTInf_obs,[3]; [6],22.9 h and 25.5 h
same,T1/2,[3]; [6],17.5 h and 18.6 h
same,Vss_obs,[3]; [6],0.137 L/kg and 0.122 L/kg and 0.116 L/kg
same,AUC(0-inf),[3]; [7],986 µg·h/mL
same,AUC(0-t),[3]; [7],609 µg·h/mL
same,half-life,[3]; [7],18.2 h
same,C0,"[3]; male, SD, rat, iv, 5 mg/kg, Mean, read-out: C0",86.3 µg/mL
same,MRT inf,[3]; [7],24.6 h
same,AUC(0-inf),[3]; [8],922 µg·h/mL
same,AUC(0-t),[3]; [8],558 µg·h/mL
same,half-life,[3]; [8],18.6 h
same,C0,"[3]; male, SD, rat, iv, 5 mg/kg, individual rats (Rat 1-3), read-out: C0",80.4 µg/mL
same,MRT inf,[3]; [8],25.3 h
same,learning during the training phase,[4],improved
same,memory on the probe day,[4],improved
same,"clinical observations, gross and microscopic examinations of the GI tract","[5]; 40 mg/kg oral gavage daily for 2 weeks, young and aged mice",unremarkable
same,genes differentially expressed on treatment,"[5]; ileum, aged mice",1162 genes
same,genes differentially expressed on treatment,"[5]; ileum, young mice",80 genes
same,genes whose expression changed significantly in response to exposure,"[5]; jejunum and ileum, both young and aged mice",no more than 2 genes
same,genes differentially expressed on treatment,"[5]; jejunum, aged mice",382 genes
same,genes differentially expressed on treatment,"[5]; jejunum, young mice",42 genes
same,genes down-regulated in ageing that are up-regulated by treatment in old mice,[5]; stomach,37 genes and 36 genes
same,genes differentially expressed on treatment (p(adj)<0.05),"[5]; stomach, aged mice",63 genes
same,ageing genes further down regulated in the ageing direction by treatment,"[5]; stomach, young mice",12 genes
same,genes differentially expressed on treatment (p(adj)<0.05),"[5]; stomach, young mice (20 weeks)",13 genes
